Measurements as given in PubChem BioAssay (NCI).
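Cultured in 96-well plates, cells were exposed to test compound for 48 hours across five concentrations. GI50: concentration for 50% inhibition of growth. TGI denotes the concentration required for complete inhibition of growth.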

Assays:
Assay in all cases: DTP human tumour cell line panel, 48 h
OVCAR-4 ovarian = system: OVCAR-4 ovarian
MDA-MB-435 = system: MDA-MB-435
SK-MEL-28 melanoma = system: SK-MEL-28 melanoma
KM12 colon = system: KM12 colon
SF-295 CNS = system: SF-295 CNS
SNB-75 CNS = system: SNB-75 CNS
UACC-62 melanoma = system: UACC-62 melanoma
SNB-19 CNS = system: SNB-19 CNS
SF-268 CNS = system: SF-268 CNS
OVCAR-8 ovarian = system: OVCAR-8 ovarian

Row | SMILES | GI50 (OVCAR-4 ovarian) | TGI (OVCAR-4 ovarian) | GI50 (MDA-MB-435) | TGI (MDA-MB-435) | GI50 (SK-MEL-28 melanoma) | TGI (SK-MEL-28 melanoma) | GI50 (KM12 colon) | TGI (KM12 colon) | GI50 (SF-295 CNS) | TGI (SF-295 CNS) | GI50 (SNB-75 CNS) | TGI (SNB-75 CNS) | GI50 (UACC-62 melanoma) | TGI (UACC-62 melanoma) | GI50 (SNB-19 CNS) | TGI (SNB-19 CNS) | GI50 (SF-268 CNS) | TGI (SF-268 CNS) | GI50 (OVCAR-8 ovarian) | TGI (OVCAR-8 ovarian)
1 | CCOC(=O)c1c2c(n3cccc(F)c13)C(=O)c1ncccc1C2=O | 1.8 µM | 11.3 µM | 541 nM | 10.7 µM | 0.486 µM | 19.4 µM | 539 nM | 18.9 µM | 500 nM | 3.69 µM | 1720 nM | 64.9 µM | 222 nM | 1.28 µM | 0.0703 µM | 4.49 µM | 96.3 nM | 28.2 µM | 1.17 µM | 7.47 µM
2 | COc1ccc2oc(-c3ccc(Cl)cc3)c(N3CCN(C)CC3)c2c1 | 2.12 µM | 7.22 µM | 1830 nM | 4.06 µM | 1.62 µM | 3.08 µM | 1640 nM | 3.27 µM | 2060 nM | 5.12 µM | 1480 nM | 4.01 µM | 1730 nM | 3.44 µM | 1.97 µM | 5.18 µM | 2360 nM | 5.61 µM | 1.9 µM | 3.94 µM
3 | COc1ccc(OC)c(/C=C/c2cnnc3ccccc23)c1 |  | > 10 µM |  | 2.01 µM |  | > 10 µM |  | > 10 µM |  | > 10 µM |  | > 10 µM |  | > 10 µM |  | > 10 µM |  | > 10 µM |  | > 10 µM
4 | COc1ccc2cc(C(=O)/C=C/c3ccccc3OC)ccc2c1 | 18.9 µM | > 100 µM | 570 nM | 5.03 µM | 21.3 µM | > 94.8 µM | 1600 nM | 9.51 µM | 1590 nM | 7.2 µM | 4060 nM | > 51.6 µM | 1880 nM | 11.9 µM | 4.37 µM | > 51.4 µM | > 20600 nM | > 100 µM | 2.71 µM | 7.34 µM
5 | COc1ccc2c(c1)c(=O)oc1cc(OC/C(=N\O)c3ccc(F)cc3)ccc12 | 18.5 µM | 44.5 µM | 12600 nM | 36.2 µM | 15.7 µM | 31 µM | 19700 nM | 43.8 µM | 20200 nM | 49.1 µM | 18500 nM | 47.9 µM | 15100 nM | 31.2 µM | 12.2 µM | 58.8 µM | 24900 nM | > 100 µM | 27.3 µM | 97.5 µM
6 | COC(C(=O)[C@@H](O)[C@@H](C)O)[C@@H]1Cc2cc3cc(O[C@H]4C[C@@H](O[C@H]5C[C@@H](O)[C@H](O)C(C)O5)[C@H](O)C(C)O4)c(C)c(O)c3c(O)c2C(=O)[C@H]1O[C@H]1C[C@@H](O[C@H]2C[C@@H](O[C@H]3C[C@@H](O)[C@@H](O)C(C)O3)[C@@H](O)C(C)O2)[C@H](O)C(C)O1 (stereo partly drawn) | 0.571 µM | > 32.5 µM | 270 nM | 2.99 µM | 0.147 µM | 1.93 µM | 207 nM | 11.3 µM | 196 nM | > 32.5 µM | 165 nM | 3.7 µM | 56.4 nM | 0.283 µM | 0.324 µM | > 32.5 µM | 207 nM | > 32.5 µM | 0.514 µM | > 32.5 µM
7 | CCNCCNc1cc(C2CCCC2)c(C#N)c2nc3ccccc3n12 | 3.22 µM | 13 µM | 2620 nM | 7.62 µM | 1.84 µM | 3.68 µM | 4640 nM | 16.6 µM | 1700 nM | 3.46 µM | 1630 nM | 4.02 µM | 1920 nM | 3.76 µM | 6.26 µM | 21.1 µM | 3280 nM | 14 µM | 3.52 µM | 10.6 µM
8 | O=S(=O)(c1ccccc1)C1CN(Cc2ccccc2)CCN(Cc2ccccc2)C1 |  | > 72.6 µM |  | 86.6 µM |  | > 100 µM |  | > 100 µM |  | > 100 µM |  | > 100 µM |  | > 68.1 µM |  | > 100 µM |  | 97.7 µM |  | > 60.3 µM
9 | CSc1ccc2c(c1)C(=O)c1c-2n(CCCN=[N+]=[N-])c(=O)c2cc([N+](=O)[O-])ccc12 | > 100 µM | > 100 µM | 14100 nM | > 100 µM | 51.4 µM | > 100 µM |  | > 100 µM | 553 nM | > 52.1 µM | 7420 nM | > 79.7 µM | 683 nM | > 88.7 µM | 1.18 µM | > 100 µM | 1980 nM | > 100 µM | 7.97 µM | > 100 µM
10 | CC(=O)/C=C/c1ccc(N(C)Cc2ccc(C(C)(C)C)cc2)cc1 | 125 µM | 330 µM | 114000 nM | 322 µM | 134 µM | 279 µM | 115000 nM | 317 µM | 162000 nM | 576 µM | 145000 nM | 345 µM | 113000 nM | 255 µM | 218 µM | 699 µM | 143000 nM | 332 µM | 148 µM | 516 µM
11 | COC1(C)Cc2c(c(C)c(O)c3c2C(=O)C=C(Cl)C3=O)O1 (stereo not drawn) |  | > 86.8 µM |  | > 100 µM |  | > 66.3 µM |  | > 100 µM |  | > 100 µM |  | > 100 µM |  | > 87.5 µM |  | > 100 µM |  | > 100 µM |  | > 73.6 µM
12 | CCOC(=O)C1=C(N)Oc2cc(OC)ccc2C1c1ccc(F)c(F)c1 (stereo not drawn) | 3.37 µM | 18.6 µM | 229 nM | 0.844 µM | 6.44 µM | 21.9 µM | 637 nM | 15.9 µM | 1910 nM | 15.5 µM | 1640 nM | 11.1 µM | 558 nM | 15.4 µM | 1.83 µM | 17.4 µM | 8560 nM | 23.5 µM | 3.28 µM | 19.2 µM
13 | N=c1c2c(=O)n3c(nc2nc2sc4ccc(Cl)cc4n12)-c1ccccc1Sc1ccccc1-3 | 3.5 µM | 19.6 µM | 2670 nM | 13.1 µM | 3.91 µM | 16.4 µM | 2900 nM | 12.4 µM | 1410 nM | 5.79 µM | 2450 nM | 9.66 µM | 1280 nM | 3.27 µM | 4.31 µM | 20.4 µM | 3520 nM | 18.3 µM | 2.95 µM | 11.8 µM
14 | O=C1[C@H](c2ccccc2)C2c3ccccc3CCN12 (stereo partly drawn) | > 100 µM | > 100 µM | > 100000 nM | > 100 µM | > 100 µM | > 100 µM | > 100000 nM | > 100 µM | > 100000 nM | > 100 µM |  | > 100 µM | > 100000 nM | > 100 µM | > 100 µM | > 100 µM | > 100000 nM | > 100 µM | > 100 µM | > 100 µM
15 | COc1cc2c3c(n(CCCN4CCOCC4)c(=O)c2cc1OC)-c1cc2c(cc1C3=O)OCO2 | 51 µM | > 100 µM | 28000 nM | > 84.4 µM | > 76.9 µM | > 100 µM | 32400 nM | > 100 µM | 137 nM | > 38.8 µM | 8290 nM | > 100 µM | 193 nM | 2.29 µM | > 38.6 µM | > 100 µM | 954 nM | > 100 µM | 3.62 µM | > 100 µM
16 | Cc1ccc(S(=O)(=O)C2=C3C(=C(c4ccccc4)c4ccccc43)CN(S(=O)(=O)c3ccc(C)cc3)C2)cc1 | 5.31 µM | 72.9 µM | 3760 nM | 17.9 µM | 15 µM | 52.3 µM | 5870 nM | > 100 µM | 9970 nM | 57 µM | 2920 nM | 31.6 µM | 4850 nM | 24.9 µM | 12.9 µM | 55.7 µM | 2600 nM | 12.9 µM | 2.65 µM | 38.1 µM
